In article PMC11831487, “Novel Naphthyridones Targeting Pannexin 1 for Colitis Management” (Advanced Science, 2024) one finds inhibition and IC50 data, which are given here for two compounds.

Assay [1] addresses T1, Pannexin 1 (PANX1) (Homo sapiens, UniProt Q96RD7). The assay can be described thus: To-Pro-3 uptake in HEK293T cells at […]. Details: C-terminally truncated hPANX1-CT-EGFP. The assay is classed as cell-based. As to conditions: HEK-293T; read-out: Mean ± SEM ^a).
Assay [2] deals with T1, Pannexin 1 (PANX1). The experiment in a line: whole-cell voltage clamp in HEK293T cells (-50 mV); CETSA (Tagg […] to […] °C). It counts as cell-based. More on the design: hPANX1(TEV)-EGFP cleaved by TEVp (currents); full-length hPANX1-FLAG (CETSA).

T1 sequence (Q96RD7 1-379 limits assumed): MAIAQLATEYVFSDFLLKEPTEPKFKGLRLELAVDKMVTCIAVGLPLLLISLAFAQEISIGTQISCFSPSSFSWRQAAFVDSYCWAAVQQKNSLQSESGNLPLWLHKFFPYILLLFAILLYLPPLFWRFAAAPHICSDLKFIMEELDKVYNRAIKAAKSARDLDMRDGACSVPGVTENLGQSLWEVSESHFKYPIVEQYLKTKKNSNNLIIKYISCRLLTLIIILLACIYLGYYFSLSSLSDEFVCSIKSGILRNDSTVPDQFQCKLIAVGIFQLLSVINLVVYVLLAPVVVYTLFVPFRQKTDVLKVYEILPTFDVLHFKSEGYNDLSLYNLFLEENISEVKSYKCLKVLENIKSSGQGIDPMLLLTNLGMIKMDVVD

On to `N[C@@H]1[C@H]2CN(c3nc4c(cc3F)c(=O)c(C(=O)O)cn4-c3ccc(F)cc3F)C[C@@H]12` [Trovan, trovafloxacin], for which, at Pannexin 1 (PANX1) [1], the inhibition at 20 µM is 87.3 ± 1.3%.

By IC50 is commonly meant the midpoint of a concentration-inhibition curve. Consider `COc1ccc(Cn2cc(C(=O)O)c(=O)c3cc(F)c(N4CCN(C)CC4)nc32)c(OC)c1` [compound 12, lithium 1‐(2,4‐dimethoxybenzyl)−6‐fluoro‐7‐(4‐methylpiperazin‐1‐yl)−4‐oxo‐1,4‐dihydro‐1,8‐naphthyridine‐3‐carboxylate], for which, at Pannexin 1 (PANX1) [2], the IC50 was approximately 730 nM.
